Converted amounts (≈) assume the structure as drawn. Where two headings read alike, the source gives them in different places.
Key:
[1] = tested on: cells harboring mutant TyrRS plasmids; experiment: chloramphenicol resistance of cells harboring mutant TyrRS plasmids selected for m-acetyl phenylalanine; format: cell-based
Excerpt: Preparation of Mutant TyrRS Library Plasmids. A library of plasmids encoding mutant M. jannaschii TryRSs directed at meta-substituted tyrosine derivatives was constructed, generally following the methods described in Example 1 of WO 2002/085923. Briefly, six residues (Tyr^32, Ala^67, His^70, Gln^155, Asp^158, Ala^167) in the active site of M. jannaschii TyrRS that are within 6.9 Å of the meta-position of the aryl ring of bound tyrosine in the crystal structure of Bacillus stearothermophilus TyrRS were mutated to all 20 amino acids at DNA level using the NNK codon scheme as described in Example 1 above. The constructed plasmid library pBK-lib contained around 1×10^9 independent clones.
Evolution of Orthogonal tRNA-synthetase Pairs for Incorporation of m-acetyl Phenylalanine. After 3 rounds of positive selection and 2 rounds of negative selection, five candidate clones (SEQ ID NO: 17-21 of WO 2002/085923) emerged whose survival in chloramphenicol was dependent on the addition of the unnatural amino acid. In the absence of m-acetyl phenylalanine, the IC50 of chloramphenicol resistance for cells harboring the one of the […] mutant TyrRS plasmids is 20 μg/ml. In the presence of m-acetyl phenylalanine, the IC50 of resistance to chloramphenicol for the same cells is 100 μg/ml. […]

[2] = tested on: E. coli cells expressing mutant TyrRS and mutRNACUA^Tyr; experiment: in vivo CAT assay: chloramphenicol resistance of cells expressing selected mutant TyrRS and mutRNACUA^Tyr (Asp112TAG CAT gene); format: cell-based, Escherichia coli; details: for IC50: Escherichia coli, read-out: IC50 value of chloramphenicol, eleven mutant TyrRS
Procedure: In the positive selection, plasmid pYC-J17 was used to express the mutRNACUA^Tyr gene and the chloramphenicol acetyl transferase (CAT) gene with a TAG stop codon at Asp112 (4). Supercoiled DNA encoding the TyrRS library was transformed into E. coli DH10B competent cells containing pYC-J17. Cells were then plated on minimal media plates containing 1% glycerol and 0.3 mM leucine (GMML) with 17 μg/mL tetracycline, 25 μg/mL kanamycin, 60 μg/mL of chloramphenicol, and 1 mM p-acetyl-L-phenylalanine. After incubation at 37° C. for 40 hours, colonies were pooled, and plasmids were isolated. Plasmids encoding mutant synthetases (pBK plasmids) were separated from pYC-J17 using gel electrophoresis and transformed into E. coli DH10B competent cells containing pLWJ17B3 for negative selection. […] Transformed cells were grown on LB (Luria-Bertani) plates containing 0.2% arabinose, 50 μg/ml kanamycin, and 35 μg/ml chloramphenicol. After 8 hours, cells were removed from the plate, and pBK plasmids were purified for further rounds of selection. In the second and third round of positive selection, the concentration of chloramphenicol was increased to 80 and 100 μg/mL, respectively. […] The polypeptide sequences of these mutant TyrRS converged on 3 independent clones LW1, LW5 and LW6, although the codon usage of each mutant TyrRS differs.
The Methanococcus jannaschii tyrosyl-tRNA synthetase (TyrRS) and a mutant tyrosine amber suppressor tRNA (mutRNACUA^Tyr) were used as the starting point for the generation of the orthogonal tRNA-synthetase pairs. […] To change the amino acid specificity of the TyrRS so that it charges p-acetyl-L-phenylalanine and not any of the common 20 amino acids, a library of M. jannaschii TyrRS mutants was generated and screened. The crystal structure of the homologous Bacillus stearothertnophilus TyrRS (31) was used to identify those residues that are within 6.5 Å of the para position of the aryl ring of bound tyrosine. Five corresponding residues (Tyr32, Glu107, Asp158, Ile159 and Leu162) in the active site of M. jannaschii TyrRS were randomly mutated by polymerase chain reaction (PCR) to generate a library 1.6×10^9 in size (4). This TyrRS mutant library was first passed through a positive selection in the presence of 1 mM p-acetyl-L-phenylalanine which is based on the suppression of an amber stop codon at nonessential residue (Asp 112) in chloramphenicol acetyl transferase (CAT) gene encoded on plasmid pYC-J17 (4) in E. coli. Cells surviving in chloramphenicol must encode a mutant synthetase that aminoacylates the mutRNACUA^Tyr with either a common amino acid(s) or p-acetyl-L-phenylalanine. […]

[3] = tested on: E. coli DH10B cells; experiment: growth rate of cells grown in the presence of the unnatural amino acid; details: 1 mM; cells transformed with mutRNACUA^Tyr, LW1RS and Z domain gene (Lys7TAG)
Procedure: E. coli DH10B cells cotransformed with pLEIZ and pBK-LW1RS were grown in minimal media containing 1% glycerol and 0.3 mM leucine (GMML media) with 25 μg/mL kanamycin, 34 μg/mL of chloramphenicol, and 1.0 mM p-acetyl-(±)-phenylalanine. When cells reach an OD600 of 0.5, isopropyl-β-D-thiogalactopyranoside (IPTG) (1 mM) was added to induce polypeptide expression.
To test the ability of the evolved synthetase and the mutRNACUA^Tyr to selectively incorporate p-acetyl-L-phenylalanine into polypeptides, an amber stop codon was substituted at a permissive site (Lys7) in the gene for the Z domain of staphylococcal protein A (32) with a COOH-terminal His6 tag. […] Cells transformed with the mutRNACUA^Tyr, LW1RS and Z domain gene (Lys7TAG) were grown in the presence of 1 mM p-acetyl-(±)-phenylalanine.

[4] = tested on: mutant Z domain protein expressed by mutRNACUA^Tyr/LW1RS; experiment: fidelity of unnatural amino acid incorporation into Z domain (Lys7TAG), by FT-ICR MS; design: species or system E. coli; details: from a signal-to-noise ratio of more than 1500 in the intact protein mass spectrum
Excerpt: Plasmid pLEIZ was used to express the Z-domain gene with an amber codon at the 7th position and a COOH-terminal His6 tag under the control of a bacteriophage T5 promoter and t0 terminator, and the mutRNACUA^Tyr gene under the control of the lpp promoter and rrnC terminator. The mutant synthetase gene isolated from clone LW1 (LW1RS) was encoded in plasmid pBK-LW1RS under the control of the constitutive E. coli GlnRS promoter and terminator. E. coli DH10B cells cotransformed with pLEIZ and pBK-LW1RS were grown in minimal media containing 1% glycerol and 0.3 mM leucine (GMML media) with 25 μg/mL kanamycin, 34 μg/mL of chloramphenicol, and 1.0 mM p-acetyl-(±)-phenylalanine. When cells reach an OD600 of 0.5, isopropyl-β-D-thiogalactopyranoside (IPTG) (1 mM) was added to induce polypeptide expression. […] The yield of polypeptide was measured by Bradford assay (BCA kit, Biorad, Hercules, Calif.). […]
To test the ability of the evolved synthetase and the mutRNACUA^Tyr to selectively incorporate p-acetyl-L-phenylalanine into polypeptides, an amber stop codon was substituted at a permissive site (Lys7) in the gene for the Z domain of staphylococcal protein A (32) with a COOH-terminal His6 tag. Z domain has a molecular weight of about 7.9 kD, so its mass can be measured with very high accuracy using ion cyclotron resonance mass spectrometry. […]

O=C(N[C@H](CO)[C@H](O)c1ccc([N+](=O)[O-])cc1)C(Cl)Cl [chloramphenicol] was tested, and the IC50 ([1]; in the presence of m-acetyl phenylalanine, read-out: IC50 of resistance to chloramphenicol) was 100 µg/mL, the IC50 ([1]; read-out: IC50 of chloramphenicol resistance) was 20 µg/mL (≈ 61.9 µM) and the IC50 ([2]; in the absence of p-acetyl-L-phenylalanine) was 9 µg/mL (≈ 27.9 µM). For the same compound, the IC50 ([2]; in the presence of p-acetyl-L-phenylalanine) was 120 µg/mL, the “chloramphenicol concentration on which cells survived” value ([2]; GMML plates, in the absence of p-acetyl-L-phenylalanine) was 9 µg/mL and the “chloramphenicol concentration in which cells survived” value ([2]; GMML plates, in the presence of p-acetyl-L-phenylalanine) was 120 µg/mL.

With CC(=O)c1ccc(CC(N)C(=O)O)cc1 (racemic) [p-acetyl-(±)-phenylalanine] the “effect on growth rate of cells” value [3] was “did not affect the growth rate of cells”.

With CC(=O)c1ccc(C[C@H](N)C(=O)O)cc1 [p-acetyl-L-phenylalanine] the “fidelity for the incorporation” value [4] was over 99.8%.

Reference: patent US7642085B2, “Protein arrays” (priority 2002, dated 2010)
